Experimental data published in US9233978B2, “6-fused heteroaryldihydropyrimidines for the treatment and prophylaxis of hepatitis B virus infection” (Hoffmann-La Roche Inc., priority 2014, dated 2016).
pEC50: −log10 of the molar value. In brackets after ≈: the same amount, converted by molar mass. Where two headings read alike, the source gives them in different places.

Legend:
HBV = assay: Anti-HBV activity in vitro, HepG2.2.15 cells, extracellular HBV DNA by qPCR; type: cell-based; details: Hepatitis B virus, HepG2.2.15, 120 h
Summary of the method: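 Extracellular HBV DNA in culture supernatant was measured by qPCR after nucleic acid extraction. The supernatant came from constitutively replicating HepG2.2.15 cells exposed for five days to half-log-diluted compounds, with DMSO at 0.5% final. Cells had been plated overnight at 37 °C beforehand.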

[1] = Human microsomal metabolic stability; type: in vitro ADME; details: human microsomes 0.5 mg/mL, 1 μM test compound, NADPH, 37° C., pH 7.4, 0-30 minutes
Summary of the method: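 1 μM compound with 0.5 mg/mL human liver microsomal protein in 100 mM phosphate pH 7.4 at 37° C, started with 1 mM NADPH or a NADPH-regenerating system. Sampled at 0–30 min, quenched in cold methanol with tolbutamide internal standard; remaining parent quantified by LC-MS/MS.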

CYP3A4 = assay: Cytochrome P450 induction screening assay, mRNA induction in human cryopreserved hepatocytes; type: in vitro ADME; details: CYP3A4 mRNA relative induction, 24 hours, test compound up to 10 μM
Protocol: Human cryopreserved hepatocytes (Life Technologies, Carlsbad, USA) were thawed and cultured in collagen I coated 96-well plates with a density of 52,000 cells/well. After attachment, medium was changed and cells were pre-cultured overnight in hepatocyte maintenance medium (HMM; Lonza, Switzerland).
Test compounds were dosed to the cells next morning at an indicated concentration (up to 10 μM) in HMM culture media containing gentamycin and a constant 0.1% DMSO. Similarly, dilutions of the positive inducer compounds omeprazole (prototypical inducer of human CYP1A2; final concentrations: 1 and 10 μM), phenobarbital (prototypical inducer of human CYP2B6; final concentrations: 100 and 1000 μM) and rifampicin (prototypical inducer of human CYP3A4; final concentrations: 1 and 10 μM) were prepared from 1000 fold DMSO stock solutions in HMM containing gentamycin. Medium change was then performed and cells were exposed for 24 hours to test compounds, positive inducer compounds, or vehicle (0.1% DMSO), respectively.
At the end of the compound exposure period, medium was removed and cells lysed using 100 μL/well MagNA Pure LC RNA isolation tissue lysis buffer (Roche Diagnostics AG, Rotkreuz, Switzerland). Plates were then sealed and frozen at −80° C. until further workup.
mRNA isolation was performed using the MagNA Pure 96 system (Roche Diagnostics AG, Rotkreuz, Switzerland) and the respective cellular RNA large volume kit (Roche Diagnostics AG, Rotkreuz, Switzerland) from thawed samples diluted 1:1 with PBS. The volume of the cell lysis and an elution volume of 100 μL were used. 20 μl of the resulting mRNA suspension was then used for reverse transcription using 20 μl of the transcript or first stand cDNA synthesis kit (Roche prime Supply, Mannheim, Germany). The resulting cDNA was diluted with 40 μl of H2O before using for qRT-PCR. qRT-PCR was performed by using the forward and the reverse primer, the corresponding UPL (all from Microsynth, Balgach, Switzerland) and the Taqman Fast advanced master mix (Applied Biosystems), on an ABI 7900 machine (Applied Biosystems).
qRT-PCR Ct-values for the respective P450s were put into relation to the Ct-value of RN18S1 (microsynth, Balgach, Switzerland) of the same sample. Doing so, a respective Δct-value was calculated. Using the average of all Δct-values for the vehicle control samples, a ΔΔct-value was calculated for each sample (ΔΔct-value(sample)=Δct-value(sample)−average of Δct-value of all vehicle controls). The fold induction of the respective sample was calculated as 2^(−ΔΔct). The individual fold induction values were then averaged per treatment condition (usually n=3 biological replicates).
Relative induction values to the respective positive inducer compound condition (10 μM omeprazole for CYP1A2; 1000 μM Phenobarbital for CYP2B6; 10 μM rifampicin for CYP3A4) were then calculated from the fold induction values as follows: Relative induction (%)=100×(T−V)/(P−V)

Lysa solubility = type: physicochemical; details: phosphate buffer, pH 6.5, aqueous buffer, thermodynamic from solid, 0.05 M phosphate buffer (pH 6.5)
Summary of the method: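 Duplicate samples dried from 10 mM DMSO stocks, taken up in 0.05 M phosphate buffer pH 6.5, stirred 1 h, shaken 2 h and left overnight. Filtrate and 1/10 dilution quantified by direct UV or HPLC-UV, in μg/mL; above 80% of the calculated maximum, reported as greater than that value.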

[2] = Cytotoxicity in HepDE19 cells (CCK-8) and selectivity index; type: cell-based; details: human, HepDE19 cells; CCK-8 cell viability; five days after treatment
Summary of the method: (§1)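 HepDE19 cells (DMEM-F12, 10% FBS) were treated with compound for five days, then given CCK-8 for 2 h at 37 °C and read at OD450 and OD630. CC50 is the concentration killing 50% of host cells. Selectivity index is CC50/EC50.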

HepDE19 cells = assay: as above; type: cell-based; details: CC50 (HepDE19) value / EC50 (HepG2.2.15) value
Summary of the method: as §1

[3] = HepG2.2.15 cells, HBV replication inhibited by 50%, extracellular HBV DNA by qPCR, five days after compound treatment, read-out: EC50

| Structure (SMILES) | pEC50 (HBV; [3]) | Human Microsomal Clearance [1] | % of Positive control (10 μM Rifampicin) (CYP3A4) | solubility thermodynamic (Lysa solubility) | CC50 at 5 days [2] | Selectivity index (CC50/EC50) (HepDE19 cells) | pEC50 (HBV) |
| --- | --- | --- | --- | --- | --- | --- | --- |
| CCOC(=O)C1=C(CN2CCN3C(=O)N(CC(C)(C)C(=O)O)C[C@@H]3C2)NC(c2nccs2)=N[C@H]1c1cccc(F)c1C [Example 76, 3-[(8aS)-7-[[(4S)-5-ethoxycarbonyl-4-(3-fluoro-2-methyl-phenyl)-2-thiazol-2-yl-1,4-dihydropyrimidin-6-yl]methyl]-3-oxo-5,6,8,8a-tetrahydro-1H-imidazo[1,5-a]pyrazin-2-yl]-2,2-dimethyl-propanoic acid] | 8.15 | 0.8 mL/min/kg | 1.3% | 565 µg/mL (≈ 944 µM) | > 100000 nM | >14286 | – |
| COC(=O)C1=C(CN2CCN3C(=O)N(CC(C)(C)CC(=O)O)C[C@@H]3C2)NC(c2nccs2)=N[C@H]1c1ccc(F)cc1Cl [Example 55, 4-[(8aS)-7-[[(4R)-4-(2-chloro-4-fluoro-phenyl)-5-methoxycarbonyl-2-thiazol-2-yl-1,4-dihydropyrimidin-6-yl]methyl]-3-oxo-5,6,8,8a-tetrahydro-1H-imidazo[1,5-a]pyrazin-2-yl]-3,3-dimethyl-butanoic acid] | 8.30 | – | 0.1% | 470 µg/mL (≈ 759 µM) | > 100000 nM | >20000 | – |
| CCOC(=O)C1=C(CN2CCN3C(=O)N(C4CC4)C[C@@H]3[C@H]2C(=O)O)NC(c2nccs2)=N[C@H]1c1cccc(F)c1Cl (single isomer, unassigned) [Example 82B] | – | 2.7 mL/min/kg | 6% | – | > 100000 nM | >50000 | 8.70 |
| CCOC(=O)C1=C(CN2CCN3C(=O)N(C(C)(C)CC(=O)O)C[C@@H]3C2)NC(c2nccs2)=N[C@H]1c1cccc(F)c1Cl [Example 34, 3-[(8aS)-7-[[(4R)-4-(2-chloro-3-fluoro-phenyl)-5-ethoxycarbonyl-2-thiazol-2-yl-1,4-dihydropyrimidin-6-yl]methyl]-3-oxo-5,6,8,8a-tetrahydro-1H-imidazo[1,5-a]pyrazin-2-yl]-3-methyl-butanoic acid] | 8.10 | 1.8 mL/min/kg | 0.2% | 326 µg/mL (≈ 527 µM) | 81000 nM | 10655 | – |
| COC(=O)C1=C(CN2CCN3C(=O)N(CCC(C)(C)C(=O)O)C[C@@H]3C2)NC(c2nccs2)=N[C@H]1c1ccc(F)cc1Cl [Example 54, 4-[(8aS)-7-[[(4R)-4-(2-chloro-4-fluoro-phenyl)-5-methoxycarbonyl-2-thiazol-2-yl-1,4-dihydropyrimidin-6-yl]methyl]-3-oxo-5,6,8,8a-tetrahydro-1H-imidazo[1,5-a]pyrazin-2-yl]-2,2-dimethyl-butanoic acid] | 8.10 | 4.6 mL/min/kg | 0% | 387 µg/mL (≈ 625 µM) | > 100000 nM | >12500 | – |
| CCOC(=O)C1=C(CN2CCN3C(=O)N(C4CCC(C(=O)O)C4)C[C@@H]3C2)NC(c2nccs2)=N[C@H]1c1cccc(F)c1Cl (mixture of isomers) [Example 62, (R)-6-[(S)-2-((1R,3S)-3-Carboxy-cyclopentyl)-3-oxo-hexahydro-imidazo[1,5-a]pyrazin-7-ylmethyl]-4-(2-chloro-3-fluoro-phenyl)-2-thiazol-2-yl-1,4-dihydro-pyrimidine-5-carboxylic acid ethyl ester and (R)-6-[(S)-2-((1S,3R)-3-Carboxy-cyclopentyl)-3-oxo-hexahydro-imidazo[1,5-a]pyrazin-7-ylmethyl]-4-(2-chloro-3-fluoro-phenyl)-2-thiazol-2-yl-1,4-dihydro-pyrimidine-5-carboxylic acid ethyl ester] | 8.22 | 1.7 mL/min/kg | 0% | 374 µg/mL | > 100000 nM | >16667 | – |
| COC(=O)C1=C(CN2CCN3C(=O)N(CC(C)(C)C(=O)O)C[C@@H]3C2)NC(c2nccs2)=N[C@H]1c1ccc(F)cc1Cl [Example 42, 3-[(8aS)-7-[[(4R)-4-(2-chloro-4-fluoro-phenyl)-5-methoxycarbonyl-2-thiazol-2-yl-1,4-dihydropyrimidin-6-yl]methyl]-3-oxo-5,6,8,8a-tetrahydro-1H-imidazo[1,5-a]pyrazin-2-yl]-2,2-dimethyl-propanoic acid] | 8.22 | 2.0 mL/min/kg | 0.6% | > 785 µg/mL | > 100000 nM | >15625 | – |
| COC(=O)C1=C(CN2CCN3C(=O)N(C(C)(C)C)C[C@@H]3[C@H]2C(=O)O)NC(c2nccs2)=N[C@H]1c1ccc(F)c(F)c1C (single isomer, unassigned) [Example 88B] | 8.30 | 4.5 mL/min/kg | 3.7% | > 745 µg/mL | > 100000 nM | >20000 | – |
| CCOC(=O)C1=C(CN2CCN3C(=O)N(CC4(C(=O)O)CC4)C[C@@H]3C2)NC(c2nccs2)=N[C@H]1c1cccc(F)c1Cl [Example 36, 1-[[(8aS)-7-[[(4R)-4-(2-chloro-3-fluoro-phenyl)-5-ethoxycarbonyl-2-thiazol-2-yl-1,4-dihydropyrimidin-6-yl]methyl]-3-oxo-5,6,8,8a-tetrahydro-1H-imidazo[1,5-a]pyrazin-2-yl]methyl]cyclopropanecarboxylic acid] | 8.22 | 4.4 mL/min/kg | 6% | 485 µg/mL (≈ 786 µM) | > 100000 nM | >18181 | – |
| CCOC(=O)C1=C(CN2CCN3C(=O)N(C(C)(C)C)C[C@@H]3[C@H]2C(=O)O)NC(c2nccs2)=N[C@H]1c1cccc(F)c1Cl (single isomer, unassigned) [Example 87B] | 9.00 | 5.0 mL/min/kg | 4.0% | – | > 100000 nM | >100000 | – |
